Results reported in patent US20220175777A1, “Inhibitors of Multidrug Resistance Transporter P-Glycoprotein” (Southern Methodist University, priority 2014, published 2022).

Key:
[1] = tested on: DU145-TxR; experiment: Re-sensitization to Paclitaxel or Doxorubicin at 25 μM compound (MTT); assay type: cell-based, human; details: 48 hours
Description: FIGS. 3A-3B are plots that show an example of the re-sensitization of a multidrug resistant prostate cancer cell line to two different chemotherapeutics using the prostate cancer derived cell line, DU145 and the multidrug-resistant variant, DU145-TxR. […] Cell viability was measured by the MTT (3-(4,5-dimethylthiazol-2-yl)-2,5-diphenyl tetrazolium bromide assay conducted as described previously. After 48 hours of treatment with Paclitaxel or Doxorubicin alone or in the presence of 25 μM compound 29, 34, or 45 media was removed and cells were washed twice with phosphate buffered saline (PBS) and MTT assay was conducted 24 hours later. Data expressed as mean±SEM.

[2] = tested on: DU145TXR; experiment: Potentiation of 500 nM paclitaxel cytotoxicity (MTT); assay type: cell-based, human
Description: FIGS. 4A and 4B show the in silico identified P-gp inhibitors potentiate the cytotoxic effects of paclitaxel in the MDR human prostate cancer cell line DU145TxR. […] Values represent the mean±SEM of at least two separate experiments performed in triplicate.
A range of experimental inhibitor concentrations was added in the presence of 500 nM paclitaxel and the cell viability was assessed using the MTT assay.
In order to compare the efficacy of inhibitors, the potentiation concentration of inhibitor resulting in 50% reduction in cell viability, PC50, in the presence of 500 nM paclitaxel was calculated from the data in FIG. 4A.

[3] = tested on: DU145TXR; experiment: Intrinsic toxicity, MTT survival; assay type: cell-based, human; details: Homo sapiens; intrinsic toxicity, 48 hours, MTT; ± standard error
Description: (§1) Percent survival determined by MTT assay calculated relative to cells treated with equal volume DMSO vehicle and represent the mean±SEM from 2-4 separate studies, each study performed in triplicate wells.
(§2) The intrinsic in vitro toxicities of identified compounds were evaluated to determine their potential therapeutic window. This was assessed in a noncancerous cell line (HFL1) and the human prostate cancer cell lines DU145 and the MDR sub-line DU145TxR.

[4] = target: T1, Cysteineless Mouse MDR3 P-glycoprotein (Mus musculus, UniProt P21447, C1070A/C1121A/C1223A/C133A/C427A/C638A/C669A/C713A/C952A); experiment: ATP hydrolysis by purified P-glycoprotein, basal and verapamil-stimulated; assay type: biochemical; details: in the presence of verapamil
T1 construct: made in house; host or cells: Pichia pastoris
T1 sequence (P21447 whole entry C133A/C427A/C638A/C669A/C713A/C952A/C1070A/C1121A/C1223A): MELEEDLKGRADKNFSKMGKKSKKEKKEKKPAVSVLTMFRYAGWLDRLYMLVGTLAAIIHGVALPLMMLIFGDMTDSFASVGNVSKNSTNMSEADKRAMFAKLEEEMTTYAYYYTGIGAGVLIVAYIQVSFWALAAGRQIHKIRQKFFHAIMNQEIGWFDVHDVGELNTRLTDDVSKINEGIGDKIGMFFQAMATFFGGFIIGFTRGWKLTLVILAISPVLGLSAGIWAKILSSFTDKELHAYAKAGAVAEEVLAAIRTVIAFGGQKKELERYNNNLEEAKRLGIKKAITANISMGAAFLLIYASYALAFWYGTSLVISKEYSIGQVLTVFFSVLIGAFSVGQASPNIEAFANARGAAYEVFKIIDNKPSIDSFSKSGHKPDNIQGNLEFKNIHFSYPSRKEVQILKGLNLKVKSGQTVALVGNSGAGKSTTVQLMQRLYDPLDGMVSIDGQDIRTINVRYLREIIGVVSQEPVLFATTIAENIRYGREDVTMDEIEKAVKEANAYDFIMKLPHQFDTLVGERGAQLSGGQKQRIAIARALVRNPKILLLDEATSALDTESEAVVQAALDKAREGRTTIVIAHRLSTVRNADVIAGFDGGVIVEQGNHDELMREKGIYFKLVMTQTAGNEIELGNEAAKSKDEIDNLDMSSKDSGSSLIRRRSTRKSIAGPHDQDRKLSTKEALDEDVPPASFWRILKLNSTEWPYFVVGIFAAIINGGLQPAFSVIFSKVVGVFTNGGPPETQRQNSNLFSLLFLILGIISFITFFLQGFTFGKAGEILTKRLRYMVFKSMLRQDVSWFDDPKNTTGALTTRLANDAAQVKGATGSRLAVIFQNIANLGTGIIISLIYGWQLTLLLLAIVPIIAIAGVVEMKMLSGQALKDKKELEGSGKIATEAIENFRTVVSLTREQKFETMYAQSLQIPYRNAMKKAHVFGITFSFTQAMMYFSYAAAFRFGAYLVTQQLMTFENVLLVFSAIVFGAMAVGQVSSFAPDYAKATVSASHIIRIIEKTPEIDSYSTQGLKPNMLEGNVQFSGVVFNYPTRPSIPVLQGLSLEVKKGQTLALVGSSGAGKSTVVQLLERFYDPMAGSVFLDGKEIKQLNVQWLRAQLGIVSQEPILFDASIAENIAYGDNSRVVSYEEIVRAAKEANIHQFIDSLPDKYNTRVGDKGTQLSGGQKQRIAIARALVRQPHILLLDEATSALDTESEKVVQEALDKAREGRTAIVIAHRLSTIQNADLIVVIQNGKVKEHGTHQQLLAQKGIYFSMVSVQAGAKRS
Source text: The efficacy of molecules identified using in silico methods to function as potential inhibitors of P-glycoprotein was initially tested with regard to their capability to inhibit ATP hydrolysis by purified P-glycoprotein. For this purpose, a well-established activity assay for ATP hydrolyzing enzymes that uses the oxidation of NADH to NAD+ through coupling the reactions of pyruvate kinase and lactate dehydrogenase to the hydrolysis of ATP was adapted to medium throughput conditions on 96 well plates. […] In this set-up, the effects of potential small molecule inhibitors on the ATP hydrolysis activity of P-glycoprotein were tested in duplicate or triplicate and were repeated at least two times using different enzyme preparations.
The P-glycoprotein used in these assays was a close relative of the human P-glycoprotein that is found in mice. A mutant version of the mouse P-glycoprotein where all intrinsic cysteine amino acids had been replaced by alanine residues was recombinantly expressed in the yeast Pichia pastoris and used for these initial tests. […] Prior to testing the ATP-hydrolysis activity, P-glycoprotein was incubated with phosphatidyl choline for stabilization of the enzyme during the assay.
Different concentrations of the to-be-tested small molecules were added and pre-incubated at 37° C. The ATP hydrolysis reaction was then started by adding equal volume of double concentrated ATPase cocktail. The final ATP concentration in the reaction was 2 mM. The reaction was allowed to proceed for 20 minutes, the rate of ATP hydrolysis was calculated using the molar extinction coefficient of NADH, and the one-to-one relationship of ATP hydrolyzed and NADH oxidized.
Evaluation of mode of inhibition of P-glycoprotein by Group 1 and Group 2 variants of compound 29. To assess the mode of inhibition of P-gp by the novel variants of P-gp inhibitor 29, ATP hydrolysis by P-gp was evaluated in the presence or absence of the variants. […] Murine P-gp (MDR3) expressed in Pichia pastoris that had all naturally occurring cysteines replaced with alanine, was used^45, 46. It is widely assumed that the ATP hydrolytic rate of P-gp is stimulated in the presence of transport substrates when compared to ATP hydrolysis in the absence of transport substrates. Assays comparing these rates can therefore be useful not only in identifying inhibitors of P-gp catalyzed ATP hydrolysis, but also to potentially infer whether a compound might be a transport substrate if basal ATPase rates are stimulated by the addition of a compound.

[5] = tested on: DU145; experiment: Intrinsic toxicity, MTT survival; assay type: cell-based; details: Homo sapiens, DU-145, 48 hours, ± standard error
Description: as §1, §2

[6] = target: T1, Cysteineless Mouse MDR3 P-glycoprotein; experiment: SL-ATP binding to P-gp by ESR spectroscopy; details: 50 microM inhibitor compound
Source text: Determination of the possible mode of ATP hydrolysis inhibition by the identified P-glycoprotein inhibitors. The mode of hydrolysis of ATP by P-glycoprotein was investigated by measuring the maximal binding stoichiometry and binding affinity of an analog of ATP, SL-ATP, and by Electron Spin Resonance (ESR) spectroscopy, similar to in both the presence and absence of the identified inhibitors.
The high-field signal of the freely mobile, unbound SL-ATP is compared and is used to calculate the amount of ATP-analog bound to P-glycoprotein. Binding of SL-ATP in the absence of any P-glycoprotein inhibitor saturated at about 2 mol of SL-nucleotide bounds per mol of P-glycoprotein.
FIGS. 2A-2D are plots showing the effects of P-glycoprotein ATP hydrolysis inhibitors on nucleotide binding. Between 30 and 50 microM Pgp were incubated with 50 microM inhibitor compound. Increasing amounts of SL-ATP were added. The ESR signal of the free SL-ATP in the presence of P-glycoprotein and inhibitor was compared to that in the absence of P-glycoprotein. The graphs represent at least 3 individual studies each using 3 to 5 different P-glycoprotein preparations.

[7] = tested on: A2780; experiment: Hyper-sensitization of ovarian cancer cells to doxorubicin; assay type: cell-based; details: not chemotherapy resistant A2780
Source text: Hyper-sensitization of cancers to chemotherapeutics. […] The sensitivity of normal, not chemotherapy resistant A2780 ovarian cancer cell lines to doxorubicin was increased by several orders of magnitude in these assays.

[8] = tested on: HFL1; experiment: Intrinsic toxicity, MTT survival; assay type: cell-based; details: Homo sapiens, 48 hours, ± standard error
Description: as §1
as §2, with “DU145TxR. The potential toxicity of the compounds were assessed at concentrations that centered around 25 μM.” for “DU145TxR.”

[9] = target: T1, Cysteineless Mouse MDR3 P-glycoprotein; details: ESR data of Brewer et al. (2014); cited from earlier work
[10] = tested on: DU145TXR; experiment: Dose dependent sensitization of MDR cell line to paclitaxel (MTT); assay type: cell-based, human; details: 25 μM compound
Description: FIGS. 6A to 6C show the dose dependent sensitization of MDR prostate cancer cell line DU145TxR. […] For reference, the DU145TxR (closed circle) and DU145 (open circle) incubated with paclitaxel only are also included. Values are mean±SEM from at least 2 separate experiments performed in triplicate wells. The data were normalized to the intrinsic toxicities as determined in studies from FIGS. 5A to 5C of each of the compounds for each of the corresponding concentrations.
Dose Dependent Sensitization of MDR Prostate Cancer Cell Line: To determine the degree to which the MDR prostate cancer cell line DU145TxR could be sensitized to paclitaxel the inventors determined cell survival at increasing concentrations of paclitaxel in the presence of three concentrations of P-gp inhibitors. FIGS. 6A, 6B and 6C show the survival of DU145TxR at increasing concentration of paclitaxel in the presence of 5 μM, 10 μM and 25 μM of the experimental compounds, respectively. The open circles represent the parental DU145 cell line in the presence of paclitaxel without addition of any inhibitor compound. The closed circles represent the survival of the multidrug resistant DU145TxR in the presence of paclitaxel alone. […] At that concentration over 10-fold increase in paclitaxel sensitivity in DU145TxR is observed compared to DU145TxR without P-gp inhibitors. Doubling the concentration of the compounds to 10 μM approximately doubled the DU145TxR sensitivity to paclitaxel.

## CCC(C(=O)N1CCN(c2ccc(OC)cc2)CC1)n1nc(C)c2sc3ccccc3c2c1=O (centres unmarked) [SMU-34, 2-[1-[4-(4-methoxyphenyl)piperazin-1-yl]-1-oxobutan-2-yl]-4-methyl-[1]benzothiolo[2,3-d]pyridazin-1-one]
[1]
  Chemotherapeutic sensitivity of MDR cell line (Paclitaxel or Doxorubicin): restores chemotherapeutic sensitivity
[2]; 50 nM-25 μM inhibitor with 500 nM paclitaxel
  Effect on paclitaxel sensitivity: strongly affected the sensitivity
[2]; in the presence of 500 nM paclitaxel, 48 hours, read-out: PC50, potentiation concentration of inhibitor resulting in 50% reduction in cell viability
  EC50: 0.57 ± 0.003 µM
[3]
  IC50: 200.3 ± 0.17 µM
[4]
  Effect on stimulated ATPase: significantly inhibit
[5]
  IC50: 47.2 ± 0.02 µM
[6]
  Effect on SL-ATP binding: decreased the SL-ATP binding affinities
[7]
  Sensitivity to doxorubicin: hyper-sensitized
[8]
  IC50: 85.2 ± 0.04 µM
[9]
  Effect on SL-ANP binding: reduce the number of binding sites
[10]
  Sensitization to paclitaxel: 1200 fold
